Patent US20050245527A1, “Nitrogen containing heterocyclic compounds and medicines containing the same” (priority 2002, published 2005)

Tests used:
[1] = system: anesthetized dogs; assay: Evaluation of cardiovascular dynamics and electrocardiogram in anesthetized dogs; assay type: in vivo, dog; details: single administration; for HR / LVdP/dt / PQ interval / QRS interval / QTc interval / mAP: percent change vs value prior to administration; for effects on the cardiovascular system: summary of Tables 4 to 8
From the text: <Evaluation of Cardiovascular Dynamics and Electrocardiogram in Anesthetized Dogs> Method Anesthetized dogs were used for the experiment. After isolating the […], a microchip pressure transducer catheter was inserted therein, and the tip was situated near the aortic orifice and in the left ventricle, for measurement of the arterial pressure (AP) and left ventricular pressure (LVP). The LVP was differentiated using a differentiation unit, and the maximum value of the first derivative of the left ventricular pressure ([…] used as the index of the […] contractility. The heart rate (HR) was measured using an instantaneous heart rate counter, with the LVP waveforms as the trigger. A needle electrode was fixed to the right anterior limb and left and right posterior limbs, and a standard II-lead electrocardiogram was taken. The parameters were recorded on a recording sheet. The test substance was administered through the venous catheter inserted in the femoral vein. Administration of Test Substance and Recording Single Administration: The test substance was administered through the catheter for 1 minute. The electrocardiogram was recorded at 2 minutes after administration, and the change in the cardiovascular dynamic was recorded continuously for 10 minutes after the administration. After 10 minutes, the dose was increased and the recording was repeated. Continuous Intravenous Infusion: The test substance was administered through the catheter for a period of one minute, and then a sustained dose was administered by continuous intravenous infusion. The electrocardiogram was recorded at the 5 and 10 minute points, and the change in cardiovascular dynamic was recorded continuously for 10 minutes from the start of administration. After 10 minutes, the dose was increased and the recording was repeated. Analysis The HR, mean arterial pressure (mAP), LVdP/dtmax and electrocardiogram parameters (RR interval, PQ interval, QRS interval, QT interval) were read from the recording sheet. The QT interval was heart rate-corrected and represented as the QTc interval.

[2] = system: left saphenous nerve of rats (ectopic firing); assay: Inhibition of ectopic firing; assay type: in vivo; details: Rattus norvegicus, iv; rats with cut left saphenous nerve, urethane anesthesia, compound via catheter in right cervical vein, number of firings in 10 seconds; read-out: Inhibition of ectopic firing (ID50)
Experimental: <Inhibition of Ectopic Firing>
(1) The inhibitory effect on ectopic firing was evaluated by the following method, with reference to Burchiel, K J., Exp. Neurol., 102, 249-253 (1988).
(2) The left saphenous nerve of rats, in which ectopic firing was observed, was cut near the knee joint, and approximately 3 mm was cut off to avoid reattachment of the cut nerve. After more than a week, the left saphenous nerve was exposed under urethane (1 g/kg body weight) anesthesia, and the proximal part up to approximately 1 cm from the cut site was detached from the surrounding tissue. A catheter was inserted in the right cervical vein beforehand for administration of the compound.
(3) The detached nerve was placed on a platinum hook electrode and wetted with liquid paraffin to avoid drying of the nerve. The electrode was connected to a microelectrode amplifier, and the change in potential was recorded from an oscilloscope through an A/D converter onto a computer. The recorded nerve firing was evaluated based on the number of firings in 10 seconds, using analyzing software (AcqKnowledge).

[3] = system: sodium channels; assay type: cell-based; details: read-out: IC50 (μM), sodium channel-inhibiting activity; rat fetal cultured hippocampal neurons, SBFI fluorescence in the presence of 4-aminopyridine, 5 minutes after addition, 1 μM tetrodotoxin = 100%

SMILES	ED50 [2]	IC50 [3]	also measured
O=C(NCC1CCCCN1)c1cc(OCC(F)(F)F)ccc1OCC(F)(F)F (stereo not shown) [Flecainide]			HR ([1]; dose 1 mg/kg weight): −8.6%; LVdP/dt ([1]; dose 1 mg/kg weight): −18.2%; PQ interval ([1]; dose 1 mg/kg weight): 8.8%; QRS interval ([1]; dose 1 mg/kg weight): 6.4%; QTc interval ([1]; dose 1 mg/kg weight): 2.3%; mAP ([1]; dose 1 mg/kg weight): −14.2%; HR ([1]; dose 3 mg/kg weight): −24.8%; LVdP/dt ([1]; dose 3 mg/kg weight): −56.9%; PQ interval ([1]; dose 3 mg/kg weight): 36.1%; QRS interval ([1]; dose 3 mg/kg weight): 37.1%; QTc interval ([1]; dose 3 mg/kg weight): 9.3%; mAP ([1]; dose 3 mg/kg weight): −42.9%; effects on the cardiovascular system [1]: exhibited effects on the cardiovascular system
Cc1cccc(C)c1NC(=O)CC12CCCN1CCC2 [Pilsicainide]			HR ([1]; dose 1 mg/kg weight): −1.0%; LVdP/dt ([1]; dose 1 mg/kg weight): −20.6%; PQ interval ([1]; dose 1 mg/kg weight): 17.4%; QTc interval ([1]; dose 1 mg/kg weight): 4.6%; mAP ([1]; dose 1 mg/kg weight): −3.2%; HR ([1]; dose 3 mg/kg weight): −5.0%; LVdP/dt ([1]; dose 3 mg/kg weight): −31.7%; PQ interval ([1]; dose 3 mg/kg weight): 55.1%; QTc interval ([1]; dose 3 mg/kg weight): 5.3%; mAP ([1]; dose 3 mg/kg weight): −8.2%; effects on the cardiovascular system [1]: exhibited effects on the cardiovascular system
O=C(CC1CCN(Cc2ncc[nH]c2=O)CC1)c1ccccc1Cl [Example 174, 3-[4-[2-(2-Chlorophenyl)-2-oxoethyl]piperidino]methyl-1H-pyrazin-2-one]	< 0.5 mg/kg	3.6 µM	
O=c1[nH]ccnc1CN1CCC(/C=C/c2cccc(F)c2)CC1 [Example 176, (E)-3-[4-[2-(3-Fluorophenyl)vinyl]piperidino]methyl-1H-pyrazin-2-one]	0.5 to 1 mg/kg	5.4 µM	
COc1ccccc1CC(=O)C1CCN(Cc2ncc[nH]c2=O)CC1 [Example 193, 3-[4-[2-(2-Methoxyphenyl)acetyl]piperidino]methyl-1H-pyrazin-2-one]	< 0.5 mg/kg	2.9 µM	
CC1(C(=O)Cc2ccccc2C(F)(F)F)CCN(Cc2ncc[nH]c2=O)CC1 [Example 373, 3-[4-Methyl-4-[2-[2-(trifluoromethyl)phenyl]acetyl]piperidino]methyl-1H-pyrazin-2-one]	< 0.5 mg/kg	1.6 µM	
O=c1[nH]ccnc1CN1CCC(CCc2ccccc2F)(COc2ccccc2F)CC1 [Example 224, 3-[4-(2-Fluorophenoxymethyl)-4-[2-(2-fluorophenyl)ethyl]piperidino]methyl-1H-pyrazin-2-one]	0.5 to 1 mg/kg	1.6 µM	
Cc1ccc(-c2ccccc2)n1CC1(O)CCN(Cc2ccc[nH]c2=O)CC1 [Example 251, 3-[4-Hydroxy-4-(2-methyl-5-phenylpyrrol-1-yl)methyl-piperidino]methyl-1H-pyridin-2-one]	0.5 to 1 mg/kg	8.4 µM	
O=C(Cc1ccccc1C(F)(F)F)C1CCN(Cc2ncc[nH]c2=O)CC1 [Example 344, 3-[4-[2-[2-(Trifluoromethyl)phenyl]acetyl]piperidino]methyl-1H-pyrazin-2-one]	< 0.5 mg/kg	4.4 µM	
O=c1cncc(CCN2CCC(COc3ccc(F)cc3F)CC2)[nH]1 [Example 239, 6-[2-[4-(2,4-Difluorophenoxymethyl)piperidino]ethyl]-1H-pyrazin-2-one]	0.5 to 1 mg/kg	9.1 µM	
O=c1cncc(CCN2CCC(COc3cc(F)ccc3F)CC2)[nH]1 [Example 241, 6-[2-[4-(2,5-Difluorophenoxymethyl)piperidino]ethyl]-1H-pyrazin-2-one]	0.5 to 1 mg/kg	5 µM	
CC1(C(=O)Cc2ccccc2F)CCN(Cc2ncc[nH]c2=O)CC1 [Example 365, 3-[4-[2-(2-Fluorophenyl)acetyl]-4-methylpiperidino]methyl-1H-pyrazin-2-one]	< 0.5 mg/kg	3.4 µM	
O=c1[nH]ccnc1CN1CCC(COc2ccccc2Cl)CC1 [Example 158, 3-[4-(2-Chlorophenoxymethyl)piperidino]methyl-1H-pyrazin-2-one]	< 0.5 mg/kg	3.7 µM	
CC(c1ncc[nH]c1=O)N1CCC(C(=O)Cc2ccccc2C(F)(F)F)CC1.O=C(O)C(=O)O (stereo not shown) [Example 394, 3-[1-[4-[2-[2-(Trifluoromethyl)phenyl]acetyl]piperidino]ethyl]-1H-pyrazin-2-one oxalate]	< 0.5 mg/kg	2.8 µM	
O=c1[nH]cccc1CN1CCC(CO)(CCc2ccccc2)CC1 [Example 256, 3-[4-Hydroxymethyl-4-(2-phenylethyl)piperidino]methyl-1H-pyridin-2-one]	0.5 to 1 mg/kg	5.8 µM	
O=c1[nH]ccnc1CN1CCC(COc2ccccc2)CC1 [Example 198, 3-[4-(Phenoxymethyl)piperidino]methyl-1H-pyrazin-2-one]	< 0.5 mg/kg	1.6 µM	

SMILES	ED50 [2]	IC50 [3]	also measured
O=C(Cc1ccccc1F)C1CCN(Cc2ncc[nH]c2=O)CC1 [Example 179, 3-[4-[2-(2-Fluorophenyl)acetyl]piperidino]methyl-1H-pyrazin-2-one]	< 0.5 mg/kg	4.6 µM	
Cc1ccccc1/C=C/C1CCN(Cc2ncc[nH]c2=O)CC1 [Example 171, (E)-3-[4-[2-(2-Methylphenyl)vinyl]piperidino]methyl-1H-pyrazin-2-one]	< 0.5 mg/kg	0.6 µM	
Cc1ccccc1OCC1CCN(CCc2cncc(=O)[nH]2)CC1 [Example 236, 6-[2-[4-(2-Methylphenoxymethyl)piperidino]ethyl]-1H-pyrazin-2-one]	< 0.5 mg/kg	7 µM	
O=c1[nH]ccnc1CN1CCC(C#Cc2ccccc2F)CC1 [Example 170, 3-[4-[(2-Fluorophenyl)ethynyl]piperidino]methyl-1H-pyrazin-2-one]	< 0.5 mg/kg	0.4 µM	
O=c1[nH]ccnc1CN1CCC(COc2c(F)cccc2F)CC1 [Example 201, 3-[4-(2,6-Difluorophenoxymethyl)piperidino]methyl-1H-pyrazin-2-one]	0.5 to 1 mg/kg	6.7 µM	
O=C(CC1CCN(Cc2ncc[nH]c2=O)CC1)c1sccc1Cl [Example 169, 3-[4-[2-(3-Chloro-2-thienyl)-2-oxoethyl]piperidino]methyl-1H-pyrazin-2-one]	0.5 to 1 mg/kg	3.5 µM	
Cc1ccccc1COC1CCN(Cc2ncc[nH]c2=O)CC1 [Example 152, 3-[4-(2-Methylbenzyloxy)piperidino]methyl-1H-pyrazin-2-one]	0.5 to 1 mg/kg	5.3 µM	
O=c1[nH]ccnc1CN1CCC(CCc2cccc3c2OCC3)CC1 [Example 140, 3-[4-[2-(2,3-Dihydrobenzofuran-7-yl)ethyl]piperidino]methyl-1H-pyrazin-2-one]	< 0.5 mg/kg	5.6 µM	
O=c1[nH]ccnc1CN1CCC(F)(COc2ccccc2F)CC1 [Example 223, 3-[4-Fluoro-4-(2-fluorophenoxymethyl)piperidino]methyl-1H-pyrazin-2-one]	0.5 to 1 mg/kg	6 µM	
O=c1cncc(CCN2CCC(CCc3ccccc3F)CC2)[nH]1 [Example 243, 6-[2-[4-[2-(2-Fluorophenyl)ethyl]piperidino]ethyl]-1H-pyrazin-2-one]	< 0.5 mg/kg	5.7 µM	
O=c1[nH]ccnc1CN1CCC(COc2cccc(F)c2)CC1 [Example 162, 3-[4-(3-Fluorophenoxymethyl)piperidino]methyl-1H-pyrazin-2-one]	0.5 to 1 mg/kg	4.6 µM	
O=c1[nH]ccnc1CN1CCC(CCc2ccccc2F)C1 (stereo not shown) [Example 134, 3-[3-[2-(2-Fluorophenyl)ethyl]pyrrolidino]methyl-1H-pyrazin-2-one]	0.5 to 1 mg/kg	3.1 µM	
COc1ccccc1C(=O)CC1CCN(Cc2ncc[nH]c2=O)CC1 [Example 145, 3-[4-[2-(2-Methoxyphenyl)-2-oxoethyl]piperidino]methyl-1H-pyrazin-2-one]	0.5 to 1 mg/kg	9.5 µM	
O=c1[nH]ccnc1CN1CCC(/C=C/c2sccc2Cl)CC1 [Example 168, (E)-3-[4-[2-(3-Chloro-2-thienyl)vinyl]piperidino]methyl-1H-pyrazin-2-one]	0.5 to 1 mg/kg	2.1 µM	
O=C(Cc1ccccc1Cl)C1CCN(Cc2ncc[nH]c2=O)CC1 [Example 183, 3-[4-[2-(2-Chlorophenyl)acetyl]piperidino]methyl-1H-pyrazin-2-one]	< 0.5 mg/kg	2.6 µM	
